# Experimental data as given in patent US20100311726A1, “REDUCTION OF BETA-AMYLOID LEVELS BY TREATMENT WITH THE SMALL MOLECULE DIFFERENTIATION-INDUCING FACTOR” (priority 2007, published 2010).
# Non-standard residues stand in square brackets, D forms with d. Residues, ends and D or L forms follow the SMILES beside them. Nle = CCCC[C@H](N)C(=O)O
# Columns and labels:
# Dictyostelium discoideum = details: cited from earlier work
# [1] = test system: APP phosphorylation on residue T668; experiment: APP T668 phosphorylation by western blot; assay type: cell-based, human; details: CHO-7W and CHO-CAB; DAPT alone, or DAPT with DIF-1 (30 μM)
# Experimental: Next, whether or not DIF-1 treatment affected the degree of T668 phosphorylation was examined by western blot (FIG. 11). Briefly, effects of DIF-1 on APP T668 phosphorylation were compared between vehicle-treated control and 250 nM of DAPT identically in each cell line. Western analysis of 15 μg of total protein was probed overnight at 4° C. with anti-APP Cterminal antibody (C66-676-695) (1:5000) and then detected on film using ECL and HRP-conjugated secondary antibodies (1:5000). […] This band has also been detected in other CHO lines where APP expression is high (˜3 fold) and by different C-terminal APP antibodies (Ab8717-676-695; except 6E10 which recognizes the N-terminal residues 1-17 of the Aβ sequence. For FIG. 11A, cells were treated with DAPT, and DAPT+DIF then were probed with anti-APP antibody (C66). For FIG. 11B, CHO-7W cells were treated with DAPT, and DAPT+DIF, and then probed with polyclonal anti-P668 APP antibody (1:1000) overnight at 4° C. in 5% BSA. After washing, cells were probed with a rabbit HRP-conjugated secondary antibody (1:5000) in BSA for 1 hour at room temperature and signals were detected on film using ECL. FIG. 11C represents CHO-CAB cells and FIG. 11D represents H4 cells expressing APP^SW.
# APP [2] = experiment: APP processing (mature APP, αCTF, βCTF) by western blot; assay type: cell-based, human; details: CHO-7W, 250 nM
# Experimental: Total protein was collected in RIPA buffer plus protease inhibitors on ice and briefly sonicated. They lysate was centrifuged at 14,000 rpm for 15 minutes. […] After washing, the blots were probed with a polyclonal HRP-tagged secondary Ab (1:5000) for 1 hour at room temperature then visualized.
# A second possibility is that DIF-1 potentiates the activity of y-secretase and processing of αCTFs and βCTFs. To assess this latter possibility, we examined the effect of DIF-1 in the presence of DAPT, a potent γ-secretase inhibitor. Even numbers of CHO-7W cells were plated in 6-well dishes and allowed to grow overnight. The next day, the media was removed and replaced with control media (2 ml) or media containing DAPT, DIF-1 or DAPT and DIF-1. […] After washing, blots were probed with HRP-conjugated secondary antibodies (1:5000) for 1 hour at room temperature. […] It would appear that the mechanism of DIF-1 on APP metabolism is not likely to involve γ-secretase activity, but might impact on either BACE1 levels or activity.
# To evaluate this probability, we treated CHO-CAB cells that overexpress human APP^751 and human BACE1 with 30 μM of DIF-1. More specifically, even numbers of CHO-CAB cells were plated in 6-well dishes and allowed to grow overnight. The next day, the media was removed and replaced with control media (2 ml) or media containing DAPT, DIF-1 or DAPT and DIF-1. […] After washing, blots were probed with HRP-conjugated secondary antibodies (1:5000) for 1 hour at room temperature. Each treatment is shown above the blot. […] It would appear that DIF-1 has a greater effect on APP maturation in CHO-CAB cells. Longer exposures reveal the presence of mature APP bands in DIF-1 treated cells.
# Next dose-dependent effects of DIF-1 on APP processing were examined. Even numbers of CHO-CAB cells were plated in 6-well dishes and allowed to grow overnight. The next day, cells were treated overnight with either vehicle or increasing concentrations of DIF-1 (5-30 μM).
# human APLP1 = experiment: APLP1 metabolism by western blot in CHO-A1 cells; assay type: cell-based; details: 30 μM DIF-1 or 250 nM DAPT, ~20 hours
# Experimental: CHO cells that stably express human APLP1, which is a closely related family member of the APPs and known γ-secretase substrate (Eggert et al., 2004), were treated with 30 μM DIF-1, DAPT or DIF-1 plus DAPT (FIG. 7). Equal numbers of CHO-A1 cells stably expressing human APLP1 cells were plated in 6-well dishes and allowed to grow overnight. The next day, the media was removed and replaced with control media (2 ml) or media containing DAPT, DIF-1 or DAPT and DIF-1. […] After washing, blots were probed with HRP-conjugated secondary antibodies (1:5000) for 1 hour at room temperature.
# cyclin D1 = experiment: Cyclin D1 level by western blot; details: for effect on cyclin D1 level (proteasome inhibitor alone): CHO-CAB, 10 μM
# Experimental: Following treatment of each cell line with or without DIF-1 (1-30 μM) and/or other inhibitors, cells were lysed in cold RIPA buffer (20 mM Tris-HCl (pH 7.4) buffer containing 150 mM NaCl, 2 mM EDTA, 1% Nonidet® P-40 (NP-40), 50 mM NaF, 1 mM Na3VO4, 1 mM Na2MoO4, 10 mg/ml aprotinin, and 10 mg/ml leupeptin), supplemented with protease inhibitor tablets from Roche (Switzerland). Protein amounts were quantified in triplicate using the BCA assay from Pierce. Equal amounts of protein extracts were fractionated by sodium dodecyl sulfate polyacrylamide gel electrophoresis (SDS-PAGE) and transferred to polyvinylidene difluoride membranes. The membranes were blocked for 1 hour with 5% fat-free powdered milk or 5% BSA, incubated overnight at 4° C. with primary antibodies (1:1000 or 1:5000), washed with TTBS and then incubated at room temperature with appropriate peroxidase-conjugated secondary antibodies (1:5000). Blots were repeatedly washed with TTBS and target proteins were detected using an enhanced chemiluminescence (ECL) system (Amersham Pharmacia Biotech, New Jersey, USA) and XOMAT™ Kodak® film.
# Densitometry analysis of western blot data was performed on a PC computer using QuantityOne® software obtained from Bio-Rad® Laboratories, Inc. (California, USA). Loading variations between western blot lanes were normalized according to the GAPDH signal prior to any experimental quantification. Each western blot presented in the figures is representative of at least five independent experiments to ensure reproducibility of the results unless noted otherwise.
# CHO-CAB cells were treated with lithium chloride (10mM). […] To ensure that the results observed were due to proteasome inhibition, we assessed the effects of lactacystin and ALLN on cyclin D1 levels. […] The data represents that of three separate experiments.
# APP [3] = experiment: APP processing (mature APP, αCTF, βCTF) by western blot; assay type: cell-based, human; details: for effect of proteasome inhibitor alone on APP CTF levels: CHO-CAB, 10 μM; for effect of kinase inhibitor alone on APP processing / CTF levels: CHO-7W or CHO-CAB, LiCl 1-10 mM; for effect of kinase inhibitor pretreatment on the effect of DIF-1 on APP processing: with 30 μM DIF-1
# APP ubiquitin-conjugates = APP ubiquitin-conjugates by immunoprecipitation and western blot; details: CHO-CAB; DIF-1 30 μM, lactacystin 10 μM, ALLN 10 μM
# Experimental: For immunoprecipitations, 1 mg of total protein was diluted with extraction buffer and precleared with protein G-conjugated agarose beads (Pierce). The precleared samples were incubated overnight with anti-APP antibodies or nonimmune IgG (Jackson Laboratories). Immunocomplexes were captured with Protein G agarose beads, washed five times with extraction buffer and heated for 5 min at 95° C. in SDS gel-loading buffer.
# CHO-CAB cell protein extracts (1 mg) were immunoprecipitated using APP antibodies. The immunoprecipitated complexes were analyzed by western blotting using anti-ubiquitin antibodies. […] Molecular Weight markers (kDa) are shown on the left. GAPDH levels are shown below each blot. The data represents that of three separate experiments.
# To determine whether the proteasome-mediated degradation of APP is accompanied by increased levels of poly-ubiquitinated APP, we investigated the ubiquitination status of APP in extracts of CHO-CAB cells treated in the absence or presence of DIF-1 (30 μM), lactacystin (10 μM), ALLN (10 μM), DIF-1+lactacystin and DIF-1+ALLN.
# GSK = details: cited from earlier work
# [4] = test system: human leukemia K562 cells; details: Kubohara 1999; cited from earlier work
smiles,measurement,setting,value
"CCCCC(=O)c1c(O)c(Cl)c(OC)c(Cl)c1O [DIF-2, 1-(3,5-dichloro-2,6-dihydroxy-4-methoxyphenyl)pentan-1-one]",specific activity relative to DIF-1 (stalk-cell differentiation),Dictyostelium discoideum; percent of the activity of DIF-1,~40%
"C[C@H](NC(=O)Cc1cc(F)cc(F)c1)C(=O)N[C@H](C(=O)OC(C)(C)C)c1ccccc1 [DAPT, N4-[N-(3,5-difluorophenacetyl-1-alanyl)]-S-phenylglycine tert-butyl ester, reference compound]",amount of T668 phosphorylated APP CTFs,[1],greatly increased the amount of detectable phosphorylated APP at residue T668
same,α- and βCTF levels with γ-secretase inhibitor alone,APP [2],increase in the levels of both α- and βCTFs
same,"APLP1 maturation, protein levels, CTF levels",human APLP1,significant increase in the levels of APLP1 CTF
same,effect on cyclin D1 level,"cyclin D1; CHO-7W, 30 μM DIF-1 or 250 nM DAPT",no effect
"CC(=O)N[C@@H](CSC(=O)[C@]1([C@@H](O)C(C)C)NC(=O)[C@H](C)[C@@H]1O)C(=O)O [lactacystin, 3S-hydroxy-2R-(1-hydroxy-2-methylpropyl)-4R-methyl-5-oxo-2 pyrrolidine-carboxylate-N-acetyl-L-cysteine, reference compound]",effect of proteasome inhibitor alone on APP CTF levels,APP [3],induced an increase in the level of αCTF and βCTF
same,effect on cyclin D1 level (proteasome inhibitor alone),cyclin D1,increased the levels of cyclin D1
same,level of APP ubiquitin-conjugates (single agent),APP ubiquitin-conjugates,increased the level of APP ubiquitin conjugates
"CC[C@H](CO)Nc1nc(NCc2ccccc2)c2ncn(C(C)C)c2n1 [roscovitine, 2-(R)-[[9-(1-Methylethyl)-6-[(phenylmethyl)amino]-9H-purin-2-yl]amino]-1 butanol]",effect of kinase inhibitor alone on APP processing / CTF levels,APP [3],no effect on APP metabolism
same,effect of kinase inhibitor pretreatment on the effect of DIF-1 on APP processing,APP [3],neither blocked nor potentiated the effect of DIF-1 on APP CTF production
"CCCC[C@@H](C=O)NC(=O)[C@H](CC(C)C)NC(=O)[C@H](CC(C)C)NC(C)=O [ALLN, Acetyl-L-Leucyl-L-Leucyl-L-Norleucinal, reference compound] (Ac-Leu-Leu-[Nle]-aldehyde)",effect of proteasome inhibitor alone on APP CTF levels,APP [3],induced an increase in CTF levels
same,effect on cyclin D1 level (proteasome inhibitor alone),cyclin D1,increased the levels of cyclin D1
same,level of APP ubiquitin-conjugates (single agent),APP ubiquitin-conjugates,increased the level of APP ubiquitin conjugates
"O=C1Cc2c([nH]c3ccc(Br)cc23)-c2ccccc2N1 [kenpaullone, 9-bromo-7,12-dihydro-indolo[3,2d][1]benzazepin-6(5H)-one]",effect of kinase inhibitor alone on APP processing / CTF levels,APP [3],no effect on the level of APP CTFs
same,effect of kinase inhibitor pretreatment on the effect of DIF-1 on APP processing,APP [3],neither attenuated nor potentiated the effect of DIF-1 on APP processing
same,IC50,GSK,0.023 µM
"CCCCCC(=O)c1c(O)cc(OC)c(Cl)c1O [DIF-3, 1-(3-chloro-2,6-dihydroxy-4-methoxyphenyl)hexan-1-one]",activity in inducing stalk-cell differentiation,Dictyostelium discoideum; in words,much less active
same,anti-leukemic potency among DIF analogs,[4],most potent anti-leukemic agent
